Numbered stars: 1 amine (or outer) side, 2 acyl side, 3 side chain; on linkers, the order of the positions; unused ones are H or OH. Bridge positions count the residues as written; N and C are the ends. Peptide text beside a SMILES is read from it. I, II: the chains in the order shown. Rhodamine110 = O=C1OC2(c3ccc(N[*:1])cc3Oc3cc(N[*:2])ccc32)c2ccccc21
Key:
Assay type in all cases: cell-based, human
lymphocytes = test: aberrant enzyme activities in febrile children, lymphocytes (Table 7)
monocytes = test: aberrant enzyme activities in febrile children, monocytes (Table 7)
granulocytes = test: aberrant enzyme activities in febrile children, granulocytes (Table 7)

Compound | aberrant enzyme activity, LYMPHS (lymphocytes; P92 Adenitis) | aberrant enzyme activity, LYMPHS (lymphocytes; P97 Pyelonephritis) | aberrant enzyme activity, LYMPHS (lymphocytes; P103 Viral Syndrome) | aberrant enzyme activity, MONOS (monocytes; P92 Adenitis) | aberrant enzyme activity, MONOS (monocytes; P97 Pyelonephritis) | aberrant enzyme activity, GRANS (granulocytes; P92 Adenitis) | aberrant enzyme activity, GRANS (granulocytes; P97 Pyelonephritis) | aberrant enzyme activity, GRANS (granulocytes; P103 Viral Syndrome) | aberrant enzyme activity, LYMPHS (lymphocytes; P88 Enteritis) | aberrant enzyme activity, LYMPHS (lymphocytes; P89 Viral Stomatitis) | aberrant enzyme activity, LYMPHS (lymphocytes; P95 Viral Syndrome) | aberrant enzyme activity, LYMPHS (lymphocytes; P99 Viral Syndrome) | aberrant enzyme activity, LYMPHS (lymphocytes; P102 UTI) | aberrant enzyme activity, MONOS (monocytes; P89 Viral Stomatitis) | aberrant enzyme activity, MONOS (monocytes; P95 Viral Syndrome) | aberrant enzyme activity, MONOS (monocytes; P96 Viral Syndrome) | aberrant enzyme activity, MONOS (monocytes; P99 Viral Syndrome) | aberrant enzyme activity, MONOS (monocytes; P102 UTI) | aberrant enzyme activity, GRANS (granulocytes; P88 Enteritis) | aberrant enzyme activity, GRANS (granulocytes; P102 UTI) | other results
CC(C)C[C@H](NC(=O)[C@@H](N)CC(C)C)C(=O)N[C@@H](CCCNC(=N)N)C(=O)Nc1ccc2c(c1)Oc1cc(NC(=O)[C@H](CCCNC(=N)N)NC(=O)[C@H](CC(C)C)NC(=O)[C@@H](N)CC(C)C)ccc1C21OC(=O)c2ccccc21 (stereo partly shown) [LLR, (H-L Leu--Leu--Arg)2 Rho 110 .4TFA] | .smallcircle. | .smallcircle. | .smallcircle. | .smallcircle. | .smallcircle. | .smallcircle. | .smallcircle. | .smallcircle. |  |  |  |  |  |  |  |  |  |  |  |  | 
C[C@H](NC(=O)[C@@H](N)CCCCN)C(=O)Nc1ccc2c(c1)Oc1cc(NC(=O)[C@H](C)NC(=O)[C@@H](N)CCCCN)ccc1C21OC(=O)c2ccccc21 [KA, (Lys-Ala)2 Rho 110] | .smallcircle. | .smallcircle. | .smallcircle. | .smallcircle. | + (>0.25 Increase over normal range) | .smallcircle. | .smallcircle. | .smallcircle. | .smallcircle. | .smallcircle. | .smallcircle. | .smallcircle. | .smallcircle. | .smallcircle. | .smallcircle. | .smallcircle. | .smallcircle. | .smallcircle. | .smallcircle. | .smallcircle. | aberrant enzyme activity, LYMPHS (lymphocytes; P96 Viral Syndrome): .smallcircle.; aberrant enzyme activity, MONOS (monocytes; P88 Enteritis): .smallcircle.; aberrant enzyme activity, MONOS (monocytes; P101 Fever -- Unknown Origin): + (>0.25 Increase over normal range); aberrant enzyme activity, MONOS (monocytes; P103 Viral Syndrome): .smallcircle.; aberrant enzyme activity, GRANS (granulocytes; P89 Viral Stomatitis): .smallcircle.; aberrant enzyme activity, GRANS (granulocytes; P95 Viral Syndrome): .smallcircle.; aberrant enzyme activity, GRANS (granulocytes; P96 Viral Syndrome): .smallcircle.; aberrant enzyme activity, GRANS (granulocytes; P99 Viral Syndrome): .smallcircle.; aberrant enzyme activity, GRANS (granulocytes; P101 Fever -- Unknown Origin): + (>0.25 Increase over normal range)
dichlorofluorescein [reference compound] | + (>0.25 Increase over normal range) | + (>0.25 Increase over normal range) | + (>0.25 Increase over normal range) | + (>0.25 Increase over normal range) | + (>0.25 Increase over normal range) | + (>0.25 Increase over normal range) | + (>0.25 Increase over normal range) | + (>0.25 Increase over normal range) | .smallcircle. | + (>0.25 Increase over normal range) | + (>0.25 Increase over normal range) | .smallcircle. | .smallcircle. | + (>0.25 Increase over normal range) | + (>0.25 Increase over normal range) | + (>0.25 Increase over normal range) | .smallcircle. | .smallcircle. | .smallcircle. | .smallcircle. | aberrant enzyme activity, LYMPHS (lymphocytes; P96 Viral Syndrome): + (>0.25 Increase over normal range); aberrant enzyme activity, LYMPHS (lymphocytes; P101 Fever -- Unknown Origin): + (>0.25 Increase over normal range); aberrant enzyme activity, MONOS (monocytes; P88 Enteritis): .smallcircle.; aberrant enzyme activity, MONOS (monocytes; P101 Fever -- Unknown Origin): + (>0.25 Increase over normal range); aberrant enzyme activity, MONOS (monocytes; P103 Viral Syndrome): + (>0.25 Increase over normal range); aberrant enzyme activity, GRANS (granulocytes; P89 Viral Stomatitis): + (>0.25 Increase over normal range); aberrant enzyme activity, GRANS (granulocytes; P95 Viral Syndrome): + (>0.25 Increase over normal range); aberrant enzyme activity, GRANS (granulocytes; P96 Viral Syndrome): + (>0.25 Increase over normal range); aberrant enzyme activity, GRANS (granulocytes; P99 Viral Syndrome): .smallcircle.; aberrant enzyme activity, GRANS (granulocytes; P101 Fever -- Unknown Origin): + (>0.25 Increase over normal range)
N=C(N)NCCC[C@H](N)C(=O)Nc1ccc2c(c1)Oc1cc(NC(=O)[C@@H](N)CCCNC(=N)N)ccc1C21OC(=O)c2ccccc21 (stereo partly drawn) [ARG, (H-L-Arg)2 Rho 110 .4TFA] | .smallcircle. |  | .smallcircle. |  | .smallcircle. |  |  |  |  |  | .smallcircle. | .smallcircle. | .smallcircle. |  | .smallcircle. | .smallcircle. | .smallcircle. | .smallcircle. |  | .smallcircle. | aberrant enzyme activity, LYMPHS (lymphocytes; P97 Pyelonephritis, listed as Arg-TFA): .smallcircle.; aberrant enzyme activity, GRANS (granulocytes; P95 Viral Syndrome): .smallcircle.; aberrant enzyme activity, GRANS (granulocytes; P96 Viral Syndrome): .smallcircle.
CC(C)C[C@H](NC(=O)[C@@H]1CCCN1C(=O)CN)C(=O)NCC(=O)N1CCC[C@H]1C(=O)Nc1ccc2c(c1)Oc1cc(NC(=O)[C@@H]3CCCN3C(=O)CNC(=O)[C@H](CC(C)C)NC(=O)[C@@H]3CCCN3C(=O)CN)ccc1C21OC(=O)c2ccccc21 [GPLGP, (H-Gly--Pro--Leu--Gly--Pro)2 Rho 110 .2TFA] (I: H-GPLGP / II: H-GPLGP; linker I:C-II:C via Rhodamine110) |  |  |  |  |  |  |  |  | .smallcircle. | .smallcircle. |  |  | .smallcircle. | .smallcircle. |  |  |  |  | .smallcircle. | .smallcircle. | aberrant enzyme activity, GRANS (granulocytes; P89 Viral Stomatitis): .smallcircle.

From patent US5698411A, “Method for determining activity of enzymes in metabolically active whole cells” (priority 1995, dated 1997)
